Experimental data from patent publication US9422339B2, “Immunomodulating cyclic compounds” (Aurigene Discovery Technologies Limited, priority 2012, dated 2016).
Where two headings read alike, the source gives them in different places. Where a SMILES comes first, the peptide text is derived from it. Bridges are numbered along the chain shown (N, C = ends). [ ]: non-standard residue; d: D form. ξ: configuration not given here. ξE = NC(CCC(=O)O)C(=O)O; ξQ = NC(=O)CCC(N)C(=O)O; ξK = NCCCCC(N)C(=O)O; Ahx = NCCCCCC(=O)O; ξS = NC(CO)C(=O)O

Legend:
PD1-PDL1 interaction = biological target: T1, PD1-PDL1 interaction (Homo sapiens, UniProt Q9NZQ7); experiment: CFSE mouse splenocyte proliferation assay (FACS), co-culture with MDA-MB-231 tumor cells expressing PD-L1; assay type: cell-based; settings: for % Splenocyte proliferation: mouse splenocytes stimulated with anti-CD3/CD28, co-culture with MDAMB231 over expressing PDL1, 72 hrs, background 13, stimulated splenocytes 72
T1 construct: endogenous in cells; host or cells: MDA-MB-231 tumor cells (PD-L1); primary splenocytes of C57BL/6 mice (PD-1)
T1 sequence (Q9NZQ7 19-290): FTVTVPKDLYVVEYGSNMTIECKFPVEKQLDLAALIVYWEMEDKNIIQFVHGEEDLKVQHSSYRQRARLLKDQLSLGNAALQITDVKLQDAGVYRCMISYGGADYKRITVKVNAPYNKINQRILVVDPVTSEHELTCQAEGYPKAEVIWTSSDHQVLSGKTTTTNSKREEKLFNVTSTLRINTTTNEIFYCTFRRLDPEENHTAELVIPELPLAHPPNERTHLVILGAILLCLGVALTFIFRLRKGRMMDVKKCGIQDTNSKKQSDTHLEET
Description: The effect of PD1 derived peptides on mouse splenocyte proliferation inhibited by PDL1/PDL2 or tumor cells expressing PDL; analyzed by Fluorescence Activated Cell Shorting (FACS) method using CFSE labeling. Mouse splenocytes harvested from 6-8 weeks old C57 BL6 mice; RPMI 1640 (GIBCO, Cat #11875); DMEM with high glucose (GIBCO, Cat # D6429); Fetal Bovine Serum [Hyclone, Cat # SH30071.03]; Penicillin (10000 unit/ml)-Streptomycin (10,000 μg/ml) Liquid (GIBCO, Cat #15140-122); MEM Sodium Pyruvate solution 100 mM (100×), Liquid (GIBCO, Cat #11360); Nonessential amino acid (GIBCO, Cat #11140); L-Glutamine (GIBCO, Cat #25030); Anti-CD3 antibody (eBiosciences—16-0032); Anti-CD28 antibody (eBiosciences—16-0281); ACK lysis buffer (1 mL) (GIBCO, Cat #—A10492); Histopaque (density-1.083 gm/ml) (SIGMA 10831); Trypan blue solution (SIGMA-T8154); 2 ml Norm Ject Luer Lock syringe—(Sigma 2014-12); 40 μm nylon cell strainer (BD FALCON 35230); Hemacytometer (Bright line-SIGMA Z359629); FACS Buffer (PBS/0.1% BSA): Phosphate Buffered Saline (PBS) pH 7.2 (HiMedia TS1006) with 0.1% Bovine Serum Albumin (BSA) (SIGMA A7050) and sodium azide (SIGMA 08591); 5 mM stock solution of CFSE: CFSE stock solution was prepared by diluting lyophilized CFSE with 180 μL of Di methyl Sulfoxide (DMSO C2H6SO, SIGMA-D-5879) and aliquoted in to tubes for further use. Working concentrations were titrated from 10 μM to 1 μM. (eBioscience—650850-85); 0.05% Trypsin and 0.02% EDTA (SIGMA 59417C); 96-well format ELISA plates (Corning CLS3390); BD FACS caliber (E6016). Splenocytes harvested in a 50 ml falcon tube by mashing spleen in a 40 μm cell strainer were further treated with 1 ml ACK lysis buffer for 5 mins at room temperature. After washing with 9 ml of RPMI complete media, cells were re-suspended in 3 ml of 1×PBS in a 15 ml tube. 3 ml of histopaque was added very carefully to the bottom of the tube without disturbing overlaying splenocyte suspension. Spin the tube at 800×g for 20 mins at room temperature. Opaque layer of lymphocytes was collected carefully without disturbing/mixing any of the layers. Cells were washed twice with cold 1×PBS followed by total cell counting using trypan blue exclusion method and used further for cell based assays. Tumor cells were cultured and maintained in high glucose complete DMEM media. 1×10^5 tumor cells were plated in 96 well plates along with required conc. of PD1 derived peptide and allowed to adhere at 37° C. for 4 hrs. 1×10^6 cells/ml of harvested splenocytes were treated with 5 μM of CFSE in pre warmed 1×PBS/0.1% BSA solution for 10 mins at 37° C. Excess CFSE was quenched using 5 volumes of ice-cold culture media to the cells and incubated on ice for 5 mins. CFSE labeled splenocytes were further given three washes with ice cold complete DMEM media. CFSE labeled 1×10^5 splenocytes were added to above wells containing tumors cells and PD1 peptides. Splenocytes were stimulated with anti-CD3 and anti-CD28 antibody (1 μg/ml each) and the co-culture was further incubated for 72 hrs at 37° C. with 5% CO2. Cells were harvested and washed thrice with ice cold FACS buffer and % proliferation was analyzed using a FACS caliber with 488 nm excitation and 521 nm emission filters. Each experimental condition was carried out in triplicates and each experiment at least carried out three times % splenocyte proliferation was analyzed using cell quest FACS program and fold induction was calculated by normalizing individual values to % background proliferation Fold Induction=% splenocyte proliferation/% background proliferation Stimulated splenocytes: Splenocytes+anti-CD3/CD28 stimulation Background proliferation: Splenocytes+anti-CD3/CD28+PDL or Tumor Compound effect was examined by adding required conc. of compound to anti-CD3/CD28 stimulated splenocytes in presence of ligand (PDL-1/PDL-2) or tumor cells.

B16F10 cells = experiment: In vivo efficacy on lung metastasis in B16F10 subcutaneous melanoma model; settings: C57/Black6 female mice, 5 mg/kg subcutaneously once daily for fourteen days
Description: C57/Black6 female mice (Aurigene, Bangalore, India) aged 6 to 8 weeks were used for the experiment. Animals were acclimatized for a week in the experimental room before conducting the experiment. On day 0, B16F10 cells grown in DMEM containing 10% FBS at 70 to 75% confluency were harvested and 0.1×10^6 cells per animal were injected to mice subcutaneously on the right flank region. On day 1, peptide (Compound #2) at 5 mg/kg dose dissolved in PBS, pH 7.4 was dosed subcutaneously at the rate of 10 ml/kg volume for fourteen days once daily. Vehicle control group of mice received only saline. Taxol at 5 MPK (i.p) with qd dosing was used as reference in this study. Each group consisted of ten animals. Body weight and clinical signs were recorded daily. […] At the end of 14 days of dosing period lung was harvested and analysed for metastasis by counting the black nodules.

[1] = % splenocyte proliferation/% background proliferation, MDAMB231 over expressing PDL1, background 1.0, stimulated splenocytes 5.5

% Splenocyte proliferation (PD1-PDL1 interaction) [%]	clinical signs (B16F10 cells)	Compound	Fold induction (PD1-PDL1 interaction; [1])	Fold induction (PD1-PDL1 interaction)	body weight reduction during the period of dosing (B16F10 cells)
53	–	C[C@@H](O)[C@@H]1NC(=O)[C@H](CC(N)=O)NC(=O)C(CO)NC(=O)C(CCC(N)=O)NC(=O)CCCCCNC(=O)[C@H](Cc2ccccc2)NC(=O)[C@H](CO)NC(=O)[C@H](CCC(=O)O)NC(=O)[C@H](CO)NC1=O (stereo partly shown) [Compound 15] (cyclo([Ahx][ξQ][ξS]NTSESF))	–	4	–
55	–	C[C@@H](O)[C@@H]1NC(=O)[C@H](CC(N)=O)NC(=O)C(CO)NC(=O)C(CCC(N)=O)NC(=O)[C@H](Cc2ccccc2)NC(=O)[C@H](CO)NC(=O)[C@H](CCC(=O)O)NC(=O)[C@H](CO)NC1=O (stereo partly shown) [Compound 14] (cyclo(ESF[ξQ][ξS]NTS))	4.2	–	–
42	–	C[C@@H](O)[C@@H]1NC(=O)[C@H](CCC(=O)O)NC(=O)C(CO)NC(=O)CCCCCNC(=O)C(CCC(N)=O)NC(=O)[C@H](Cc2ccccc2)NC(=O)[C@H](CO)NC(=O)[C@H](CCCCN)NC(=O)[C@H](CO)NC1=O (stereo partly shown) [Compound 17] (cyclo([Ahx][ξS]ETSKSF[ξQ]))	3.2	–	–
39	–	CC[C@H](C)[C@H](N)C(=O)NC1CCC(=O)NCCCCC(C(=O)N[C@H](C(=O)NC(CCC(N)=O)C(=O)O)C(C)C)NC(=O)[C@H](CO)NC(=O)[C@H](CCSC)NC1=O (stereo partly shown) [Compound 12] (H-I[ξE]MS[ξK]V[ξQ]-OH; lactam 2-5)	3.0	–	–
36	–	C[C@@H](O)[C@@H]1NC(=O)[C@H](CCC(=O)O)NC(=O)C(CO)NC(=O)CCC(C(N)=O)NC(=O)[C@H](Cc2ccccc2)NC(=O)[C@H](CO)NC(=O)[C@H](CCCCN)NC(=O)[C@H](CO)NC1=O (stereo partly shown) [Compound 20] ([ξS]ETSKSF[ξE]-NH2; lactam N-8)	2.8	–	–
36	–	C[C@@H](O)[C@@H]1NC(=O)[C@H](CCC(=O)O)NC(=O)C(CO)NC(=O)C(CCC(N)=O)NC(=O)[C@H](Cc2ccccc2)NC(=O)[C@H](CO)NC(=O)[C@H](CCCCN)NC(=O)[C@H](CO)NC1=O (stereo partly shown) [Compound 16] (cyclo(ETSKSF[ξQ][ξS]))	2.8	–	–

The remaining lines, values behind:

Compound	% Splenocyte proliferation (PD1-PDL1 interaction) [%]	clinical signs (B16F10 cells)	Fold induction (PD1-PDL1 interaction; [1])	Fold induction (PD1-PDL1 interaction)	body weight reduction during the period of dosing (B16F10 cells)
C[C@@H](O)[C@@H]1NC(=O)C(NC(=O)[C@@H](N)CCC(=O)O)CCC(=O)NCCCCC(C(=O)N[C@@H](CO)C(=O)N[C@@H](Cc2ccccc2)C(N)=O)NC(=O)[C@H](CO)NC1=O (stereo partly shown) [Compound 4] (H-E[ξE]TS[ξK]SF-NH2; lactam 2-5; N-terminus assumed)	36	–	2.8	–	–
CC(C)[C@H](NC(=O)C1CCCCNC(=O)CCC(NC(=O)[C@@H](N)CO)C(=O)N[C@@H]([C@@H](C)O)C(=O)N[C@@H](CO)C(=O)N1)C(=O)N[C@@H](Cc1ccccc1)C(N)=O (stereo partly shown) [Compound 7] (H-S[ξE]TS[ξK]VF-NH2; lactam 2-5; N-terminus assumed)	52	–	4.0	–	–
CC[C@H](C)[C@H](N)C(=O)NC1CCC(=O)NCCCCC(C(=O)N[C@@H](CO)C(=O)NC(CCC(N)=O)C(=O)O)NC(=O)[C@H](CO)NC(=O)[C@H](CCSC)NC1=O (stereo partly shown) [Compound 11] (H-I[ξE]MS[ξK]S[ξQ]-OH; lactam 2-5; N-terminus assumed)	54	–	4.2	–	–
CC[C@H](C)[C@H](NC(=O)[C@H](CO)NC(=O)C1CCCCNC(=O)CCC(NC(=O)[C@@H](N)CO)C(=O)N[C@@H]([C@@H](C)O)C(=O)N[C@@H](CO)C(=O)N1)C(N)=O (stereo partly shown) [Compound 5] (H-S[ξE]TS[ξK]SI-NH2; lactam 2-5; N-terminus assumed)	42	–	3.2	–	–
C[C@@H](O)[C@@H]1NC(=O)C(NC(=O)[C@@H](N)CO)CCCCNC(=O)CCC(C(=O)N[C@@H](CO)C(=O)N[C@@H](Cc2ccccc2)C(N)=O)NC(=O)[C@H](CO)NC1=O (stereo partly shown) [Compound 1] (H-S[ξK]TS[ξE]SF-NH2; lactam 2-5)	60	–	–	4.6	–
CC[C@H](C)[C@H](N)C(=O)NC1CCC(=O)NCCCCC(C(=O)N[C@@H](CO)C(=O)N[C@@H](Cc2ccccc2)C(N)=O)NC(=O)[C@H](CO)NC(=O)[C@H]([C@@H](C)O)NC1=O (stereo partly shown) [Compound 6] (H-I[ξE]TS[ξK]SF-NH2; lactam 2-5; N-terminus assumed)	55	–	4.2	–	–
C[C@@H](O)[C@@H]1NC(=O)[C@@H](NC(=O)[C@@H](N)CO)CCC(=O)NCCCC[C@@H](C(=O)N[C@@H](CO)C(=O)N[C@@H](Cc2ccccc2)C(N)=O)NC(=O)[C@H](CO)NC1=O [Compound 2] (H-SETSKSF-NH2; lactam 2-5)	57	no clinical signs observed	4.3	–	no body weight reduction
